Measured values: patent US8409580B2, “Therapeutic vaccine targeted against P-glycoprotein 170 for inhibiting multidrug resistance in the treatment of cancers” (AC Immune SA, priority 2003, dated 2013)
Ends that are not written are not given here.

Columns and labels:
[1] = trials for treatment of multidrug resistance (Stupp et al. 1998); cited from earlier work
[2] = tested on: P388R cells; details: mice, same cancer model, 100 mg/kg/day (Pierré et al. 1992); cited from earlier work
[3] = tested on: cancer cells; details: by means of an increase in the invasive potential of the cancer cells; cited from earlier work
[4] = tested on: mice; assay: Immunogenicity of di- and tetrapalmitoylated conjugates in liposomes: antibody detection by Dot Blot and antibody titer; assay type: in vivo
Description: In order to further understand the degree of immunogenicity of the conjugates according to the invention, two types of conjugates were produced and tested. The first type of conjugate corresponds to the synthetic sequences of the peptides derived from the extracellular loops of the murine P-170 protein, covalently coupled to four molecules of fatty acid containing a carbon chain of between C12 and C24, per molecule of peptide. The second type of conjugate is made up of a peptide coupled only to two molecules of fatty acid. This study is illustrated by means of a specific example of dipalmitoylated and tetrapalmitoylated conjugates.
Table III describes the sequences of the di- and tetrapalmitoylated conjugates corresponding to loops 1, 2 and 4 of the murine P-170 protein and also their immunogenic capacity measured through the detection of antibodies by the Dot Blot technique and also the antibody titer by fluorescence units. […] The mpp4 and mpp2 conjugates engender an immune response with an antibody titer in the region of 400 fluorescence units. […] In fact, the synthesis of this loop is very hard and long since there are many possible chemical terminations, or chemical rebridging which could explain the lack of immune response of this first batch of peptides. For the animal immunization trials, a further synthesis of the peptides, in particular of loop 1, was therefore carried out.
The conjugates according to the invention serving as antigenic molecules, diluted in PBS, are firstly deposited at ambient temperature onto nitrocellulose membranes. After 30 minutes, these antigenic molecules are blocked with 3 ml of a solution containing PBS-5% skim milk. The membranes are incubated for 2 hours at ambient temperature, without washing, with 24 μl of murine serum prediluted volume-for-volume with PBS, in 2 ml of PBS containing 1% of skim milk and 0.1% of tween 20. Said murine serum was taken during a period of 15 to 45 days after the third immunization. After three washes in PBS-1% skim milk-0.1% tween 20, the membranes are sequentially incubated for 1 hour at ambient temperature, in 3 ml of PBS-1% skim milk-0.1% tween 20 containing the peroxydase anti-mouse secondary antibody diluted to 1/3000, and then after 2 washes, in 3 ml of PBS-1% skim milk-0.1% tween 20. The membranes are then washed once for 10 minutes in PBS alone and kept in a refrigerator at 4° C. overnight, in 500 μl of PBS. A chemoluminescence peroxydase substrate (ECL™ kit, […] Pharmacie Biotech) is deposited at the surface of the membranes (0.125 ml/cm^2), and left for one minute, and the membranes are then drained off and placed in a “cold” cassette between 2 films of Saran®. The membranes are immediately exposed by autoradiography, the emitted light resulting from the reaction of oxidation of the luminol by the peroxydase being collected on KODAK X-OMAT films with varying times from a few minutes to 1 hour, depending on the strength of the signal. The antibody titers are estimated using a densitometer suitable for the above system. The sensitivity of the chemoluminescence reaction has a threshold for detection of the induced antibodies evaluated at 0.2 ng/ml under the experimental conditions.

[5] = tested on: B6D2F1 mice; assay: Immune response in vivo in B6D2F1 mice immunized with the vaccine preparations (anti-mpp1, mpp2, mpp4 antibody isotypes, Dot Blot); details: further synthesis of the peptide; compared with mpp2 and mpp4
Experimental: The mice were immunized three times, two weeks apart, by intraperitoneal injection with 200 μl of vaccine composition. This experimental protocol is carried out for the four preparations on groups of nine B6D2F1 mice (Iffa Credo, L'Arbresle, France).
To quantify by Dot Blot the various immunoglobulins induced by the immunization, 100 μl of blood were taken, from each mouse, from the retroorbital sinus one day before the booster and 15 days after the final injection. Each blood sample was then centrifuged and the serum isolated was used for the quantification.
The conjugates according to the invention serving as antigenic molecules, diluted in PBS, are firstly deposited at ambient temperature onto nitrocellulose membranes. After 30 minutes, these antigenic molecules are blocked with 3 ml of a solution containing PBS-5% skim milk. The membranes are incubated for 2 hours at ambient temperature, without washing, with 24 μl of murine serum prediluted volume-for-volume with PBS, in 2 ml of PBS containing 1% of skim milk and 0.1% of tween 20. Said murine serum was taken during a period of 15 to 45 days after the third immunization. […] The sensitivity of the chemoluminescence reaction has a threshold for detection of the induced antibodies evaluated at 0.2 ng/ml under the experimental conditions. […]

[6] = mice injected with liposomes containing the conjugate, first peptide synthesis

C=CCNc1nc(NCC=C)nc(N2CCC(NCC(c3ccc(F)cc3)c3ccc(F)cc3)CC2)n1 [S9788, 6-[4-[2,2-di-(4-fluorophenyl)ethylamino]-1-piperidinyl]-N,N′-di-2-propenyl-1,3,5-triazine-2,4-diamine]
toxicity limiting use in clinical trials [1]: cardiac toxicity, ventricular arrhythmia and torsade de pointe
increase in survival [2]: 49%

OCCN1CCN(CC/C=C2\c3ccccc3Sc3ccc(C(F)(F)F)cc32)CC1 [trans-flupenthixol]
effect on mortality [3]: can accelerate mortality

G-KVLTSFTNKELQAYAK-G-K-NH2 (GKVLTSFTNKELQAYAKGK-NH2; also: two palmitic acids; listed as Mus musculus) [mpp′2]
Ac titer fluorescence [4, 6]: <10 fluorescence units

G-SRDDDMETKRQNEN-G-K-NH2 (GSRDDDMETKRQNENGK-NH2; also: two palmitic acids; listed as Mus musculus) [mpp′4]
Ac titer fluorescence [4, 6]: 100 fluorescence units
antibody titer relative to the titer induced by mpp4 ([4]; same sequence with two versus four palmityl residues): four times lower

K-G-GNMTDSFTKAEASILPSITNQSGPNSTLIISNSSLEEE-G-K-K-NH2 (KGGNMTDSFTKAEASILPSITNQSGPNSTLIISNSSLEEEGKK-NH2; also: four palmitic acids; listed as Mus musculus) [mpp1]
Ac titer fluorescence [4, 6]: <10 fluorescence units
Detection of antibodies by Dot Blot [4, 6]: no antibody was detected
antibody titers induced by the conjugate [5]: significant and comparable in value to the antibody titers detected for the mpp2 and mpp4 conjugates
